Six compounds from patent publication US20110112187A1, “Use Of Tranilast And Derivatives Thereof For The Therapy Of Neurological Conditions” (priority 2007, published 2011) can be followed below.

The test system of one assay is neural stem cells. Briefly: In vitro differentiation assay on adult neuronal stem cells (beta-III-tubulin promoter dual luciferase reporter). In kind it is cell-based, rat. The following applies: 48 hrs; concentration ranges within 0.01 to 100 μM; versus sham treated cells. From the text:
The neuroregenerative effect of the compounds according to the present invention can be assayed in vitro by measuring their stimulation of the differentiation of neuronal stem cells. Therefore, adult neuronal stem cells have to be isolated and subsequently cultivated in a suitable culture medium. After several passages in vitro the stem cells have to be co-transfected with a DNA construct coding for two discriminable reporter proteins one of them under the control of a constitutive promoter and the other under the control of a beta-III-tubulin promoter. The beta-III-tubulin promoter is induced during the process of neuronal stem cell differentiation; therefore the reporter protein under the control of this promoter serves as a marker for the stem cell differentiation in such an in vitro dual reporter assay (Schneider et al., J Clin Investigation 2005; 115:2083-2098). The person skilled in the art knows several suitable constitutive promoters such as the SV40-promoter, the TK-promoter, or the CMV-promoter. As discriminable reporter proteins for such a dual reporter assay one can use discriminable luciferases such as firefly luciferase and Renilla luciferase. The transfected cells have to be incubated with the test compound and with positive and negative controls for normalization and background correction. As a positive control compound one can use retinoic acid (Guan et al., Cell Tissue Res. 2001; 305:171-176; Jacobs et al., Proc. Natl. Acad. Sci. USA 2006; 103:3902-3907), a suitable negative control is the sham treatment of the cells. The neroregenerative activity of the test compound is determined as the ratio of the signal of the beta-III-tubulin promoter controlled reporter versus the signal of the constitutively expressed reporter and is expressed as fold from the control. This assay is suitable to assess the neuroregenerative activity of tranilast and derivatives thereof, but also can be used to screen for other potential neuroregenerative compounds. Preferably, such a screening can be used to test compounds which are already known to be suitable as a medicament in terms of its toxicology, bioavailability, solubility, stability etc.
Neural stem cells were isolated from the subventricular zone of 4 week-old male Wistar rats as described (Maurer et al, Proteome Sci. 2003; 1:4). Cells were cultivated in Neurobasal medium (Invitrogen) supplemented with B27 (Invitrogen), 2 mM L-glutamine, 100 units/ml penicillin, 100 units/ml streptomycin, 20 ng/ml […] growth factor (EGF), 20 ng/ml fibroblast growth factor-2 (FGF-2), and […] heparin. Once a week the neural stem cells were passaged and experiments were performed after 4 weeks in vitro. For DNA transfection, the cells were dissociated and plated on poly-L-ornithin/laminin-coated 96-well plates at a density of 50.000 cells/well. Cotransfection with the pGL3-p-βIII-tubulin vector (100 ng/well) and the pRL SV40 vector (100 ng/well) was carried out according to the FuGene6 Transfection protocol (Roche). The pRL SV40 vector (Promega) served as an internal control vector.
To amplify the class III β-tubulin gene promoter (fragment −450-+54), rat genomic DNA was used as a template for PCR (Dennis et al., Gene 2002; 294:269-277). The amplified fragment was inserted into the Mlu I/Xho I site of the pGL3-Basic firefly luciferase reporter vector (Promega) to generate the pGL3-p-βIII-tubulin experimental vector.
After overnight incubation, the plate was decanted and given in 8-fold replicates fresh medium containing tranilast (Sigma) or vehicle. As a positive control for in vitro differentiation, stem cells were treated by adding 1 μM retinoic acid (Sigma) to the medium missing the mitogens.
After 48 hrs, the cells were harvested to prepare the cellular extracts for luciferase assay following the directions of the manufacturer (Promega). […]
(A reporter such as luciferase makes a cellular process visible.)

A further assay has as its system SH-SY5Y neuronal cells. Briefly: In vitro anti-apoptosis assay (Caspase-Glo 3/7, staurosporine induced apoptosis). Format: cell-based, human. Here is the method: Neuroprotection is attainable via the inhibition of apoptosis of affected neurons. The anti-apoptotic effect of tranilast and its derivatives can be assayed in vitro by measuring the caspase-3 and caspase-7 activities. These members of the cysteine aspartic acid-specific protease (caspase) family play key effector roles in apoptosis in mammalian cells. Cortical neurons have to be isolated and subsequently cultivated in a suitable culture medium. The cells have to be incubated with the test compound in the presence of an apoptotic substance such as staurosporine. Parallel approaches with staurosporine alone and sham treatment of the cells serve as […] controls. The assay allows evaluating whether the test compound can compensate either completely or partially for the apoptotic effect of staurosporine. This assay is suitable to assess the neuroprotective activity of tranilast and derivatives thereof, but also can be used to screen for other potential neuroprotective compounds. Preferably, such a screening can be used to test compounds which are already known to be suitable as a medicament in terms of its toxicology, bioavailability, solubility, stability etc.
The neuroprotective effect of compounds can be assayed in vitro by measuring caspase-3 and caspase-7 activities. These members of the cysteine aspartic acid-specific protease (caspase) family play a key effector role in apoptosis in mammalian cells.
The human neuroblastoma cell-line SH-SY5Y (American Type Culture Collection) maintained in DMEM with high glucose supplemented with 20% FBS was used for the apoptosis assay. Alternatively one can analyse the apoptosis of primary cortical neurons which can be isolated from E18 rats and subsequently cultivated in suitable culture medium. 2.5×10^4 SH-SY5Y cells were seeded in 96-well plates and stimulated 24 h later with tranilast or vehicle in the presence of the apoptosis inducing compound staurosporine (0.5 μM, Calbiochem). After 5 h incubation at 37° C., caspase-Glo 3/7 reagent (Promega) containing luciferase and luminogenic substrate was added to the cells. The cleavage of the substrate by caspase-3 and caspase-7 was detected 30 min later using a luminometer (Berthold Technologies, Mithras LB 940). The Luminescence which is proportional to the amount of caspase activity serves as a measure for the apoptosis of the treated neurons. Tranilast was tested in a range from 0.8 μM to 100 μM final concentration.
Analogously to Example 3, various derivatives of tranilast (N-(3′,4′-methylenedioxycinnamoyl)-anthranilic acid (FIG. 2a (ChemBridge Corporation)), 2-(3′,4′-dimethoxycinnamoylamino)-toluene (FIG. 2b (ChemBridge Corporation)), N-cinnamoyl-anthranilic acid (FIG. 2c (ChemBridge Corporation)), and 2-(3′,4′-dimethoxycinnamoylamino)-anisole (FIG. 2d (Ambinter SARL))) have been analysed for their anti-apoptotic activity. The SH-SY5Y cells have been incubated with these derivatives (1 μM) either alone or in the presence of staurosporine (0.5 μM). Incubation with staurosporine (0.5 μM) alone served as positive control and incubation with vehicle served as negative control. In the case of 3-(4′-chlorocinnamoylamino)-anisole (FIG. 2e (Sigma)) the SH-SY5Y cells have been incubated with this derivative (1 μM) either alone or in the presence of staurosporine […]. Accordingly, incubation with staurosporine […] alone served as positive control and incubation with vehicle served as negative control. The degree of apoptosis relative to the staurosporine control is shown in FIG. 4 a (vehicle (sham): 9% staurosporine (SP): 100%; tranilast: 8%; tranilast plus staurosporine: 75%; derivative A: 3%; derivative A plus staurosporine: 27%; derivative B: 7%; derivative B plus staurosporine: 79%; derivative C: 2%; derivative C plus staurosporine: 20%; derivative D: 7%; derivative D plus staurosporine: 80%) and FIG. 4 b (vehicle (sham): 13%; staurosporine: 100%; derivative E: 6%; derivative E plus staurosporine: 25%).

The mark [1] stands for this setting: compound 1 μM alone, FIG. 4a (control staurosporine 0.5 μM).
Setting [2] is: compound 1 μM plus staurosporine 0.5 μM, FIG. 4a.

Regarding `O=C(C=Cc1ccc2c(c1)OCO2)Nc1ccccc1C(=O)O` [derivative A, N-(3′,4′-methylenedioxycinnamoyl)-anthranilic acid], in the assay on neural stem cells, the “differentiation of neural stem cells to neurons (relative induction of the class III β-tubulin gene promoter controlled luciferase signal)” value is reported as “significantly stimulates the differentiation of neural stem cells to neurons in a dose dependent manner”. Besides, the results for the “degree of apoptosis relative to the staurosporine control” value in the assay with SH-SY5Y neuronal cells (setting [1]) and in the assay with SH-SY5Y neuronal cells (setting [2]) were 3% and 27%, respectively.

With `COc1ccc(C=CC(=O)Nc2ccccc2C)cc1OC` [derivative B, 2-(3′,4′-dimethoxycinnamoylamino)-toluene], the “differentiation of neural stem cells to neurons (relative induction of the class III β-tubulin gene promoter controlled luciferase signal)” value in the assay on neural stem cells is reported as “significantly stimulates the differentiation of neural stem cells to neurons in a dose dependent manner”. For the same compound, the “degree of apoptosis relative to the staurosporine control” value in the assay on SH-SY5Y neuronal cells (setting [1]) was 7%; in the assay with SH-SY5Y neuronal cells (setting [2]), 79%.

For the compound `O=C(C=Cc1ccccc1)Nc1ccccc1C(=O)O` [derivative C, N-cinnamoyl-anthranilic acid], the “differentiation of neural stem cells to neurons (relative induction of the class III β-tubulin gene promoter controlled luciferase signal)” value in the assay on neural stem cells was “significantly stimulates the differentiation of neural stem cells to neurons in a dose dependent manner”. Besides, the figures for the “degree of apoptosis relative to the staurosporine control” value with SH-SY5Y neuronal cells (setting [1]) and in the assay with SH-SY5Y neuronal cells (setting [2]) were 2% and 20%, respectively.

Regarding `COc1ccccc1NC(=O)C=Cc1ccc(OC)c(OC)c1` [derivative D, 2-(3′,4′-dimethoxycinnamoylamino)-anisole], the “differentiation of neural stem cells to neurons (relative induction of the class III β-tubulin gene promoter controlled luciferase signal)” value in the assay on neural stem cells is given as “significantly stimulates the differentiation of neural stem cells to neurons in a dose dependent manner”. The “degree of apoptosis relative to the staurosporine control” value in the assay on SH-SY5Y neuronal cells (setting [1]) turned out to be 7%; in the assay on SH-SY5Y neuronal cells (setting [2]), 80%.

For the compound `COc1cccc(NC(=O)C=Cc2ccc(Cl)cc2)c1` [derivative E, 3-(4′-chlorocinnamoylamino)-anisole], the “differentiation of neural stem cells to neurons (relative induction of the class III β-tubulin gene promoter controlled luciferase signal)” value in the assay with neural stem cells is “significantly stimulates the differentiation of neural stem cells to neurons in a dose dependent manner”. Further, the “anti-apoptotic effect: reduction of the staurosporine induced apoptosis” value in the assay with SH-SY5Y neuronal cells (co-incubation with staurosporine) is on record as “significant reduction of the staurosporine induced apoptosis”. The “degree of apoptosis relative to the staurosporine control” value was 6% in the assay on SH-SY5Y neuronal cells (compound 1 μM alone, FIG. 4b (control staurosporine 0.1 μM)) and 25% in the assay with SH-SY5Y neuronal cells (compound 1 μM plus staurosporine (1 μM printed, 0.1 μM elsewhere in the source), FIG. 4b).

Regarding `CN[C@@H]1C[C@H]2O[C@@](C)([C@@H]1OC)n1c3ccccc3c3c4c(c5c6ccccc6n2c5c31)C(=O)NC4` [staurosporine], the “degree of apoptosis relative to the staurosporine control” value in the assay with SH-SY5Y neuronal cells (staurosporine 0.1 μM alone (positive control, reference), FIG. 4b) turned out to be 100%. In addition, the “apoptosis (caspase-3/7 luminescence) relative to staurosporine” value in the assay with SH-SY5Y neuronal cells (staurosporine 0.5 μM alone (positive control, reference)) was determined as 100%.
